Data taken from patent USRE39708E1, “Estrogen receptor modulators” (Chiron Corporation, priority 1998, dated 2007).

Tested on: MCF-7 cells
Experiment: MCF-7 cell proliferation assay (BrdU incorporation)
Format: cell-based
Conditions: MCF-7 proliferation, 24 hours, in the absence of estradiol or in the presence of 1 nM estradiol
Experimental: MCF-7 cells are a common line of breast cancer cells used to determine in vitro estrogen receptor agonist/antagonist activity (MacGregor and Jordan 1998). The effect of a test compound on the proliferation of MCF-7 cells, as measured by the incorporation of 5-bromo-2′-deoxyuridine (“BrdU”) in a chemiluminescent assay format, can be used to determine the relative agonist/antagonist activity of the test compound. MCF-7 cells (ATCC HTB-22) are mainatined in log-phase culture. The cells are plated and incubated in phenol-free medium to avoid external sources of iS estrogenic stimulus (MacGregor and Jordan 1998). The test compound is added at varying concentrations to determine an IC50, for the compound. […]
This assay determines the estrogen agonist/antagonist activity of a test compound by the effect of the test compound on the proliferation of MCF-7 cells as measured by the incorporation of 5-bromo-2′-deoxyuridine (“BrdU”) in a chemiluminescent assay format. […]
The cells were cultured in the presence of test compounds for 24 hours at 37° C. and under a 5% CO2 atmosphere Cell proliferation was detected by measuring the level of BrdU incorporation into DNA. […] The plates were shaken for ten minutes at room temperature, and the resulting chemiluminescent signals were counted using a TRILUX scintillation counter.

Structure (SMILES) | concentration at which activity was demonstrated
CCc1c(-c2ccc(O)cc2)nn(-c2ccccc2C(F)(F)F)c1-c1ccc(O)cc1 [4-{4-ethyl-5-(4-hydroxyphenyl)-1-[2-(trifluoromethyl)phenyl]pyrazol-3-yl}phenol] | less than one hundred
CCc1c(-c2ccc(O)cc2)nn(C2CCC2)c1-c1ccc(O)cc1 [4-[1-cyclobutyl-4-ethyl-5-(4-hydroxyphenyl)pyrazol-3-yl]phenol] | less than one hundred
